Assay results as given in patent EP1202975B1, “SUBSTITUTED POLYCYCLIC ARYL AND HETEROARYL PYRAZINONES USEFUL FOR SELECTIVE INHIBITION OF THE COAGULATION CASCADE” (Pharmacia Corporation, priority 1999, dated 2000).
Like-named read-outs stand apart in the source and are kept apart here.

Legend:
[1] = molecular target: T1, TF-VIIa (Homo sapiens, UniProt P08709); assay: TF-VIIa Assay; format: biochemical
T1 construct: 2nM recombinant human factor VIIa; purchased American Diagnostica, Greenwich CT; host or cells: soluble TF made in house in E. coli

[2] = molecular target: Human factor Xa (Homo sapiens, UniProt P00742); assay: Xa Assay; details: for IC50 or % Inhibition Factor Xa (30 µM): % inhibition at 30 µM
[3] = cells given as a plain number (IC50); read-out: IC50 or % Inhibition TF-VIIa (30 µM)
[4] = read-out: IC50 or % Inhibition TF-VIIa (30 µM); cells given as a plain number (IC50)
[5] = read-out: IC50 or % Inhibition Factor Xa (30 µM), cells given as a plain number (IC50)

T1 sequence (P08709 213-466 limits assumed): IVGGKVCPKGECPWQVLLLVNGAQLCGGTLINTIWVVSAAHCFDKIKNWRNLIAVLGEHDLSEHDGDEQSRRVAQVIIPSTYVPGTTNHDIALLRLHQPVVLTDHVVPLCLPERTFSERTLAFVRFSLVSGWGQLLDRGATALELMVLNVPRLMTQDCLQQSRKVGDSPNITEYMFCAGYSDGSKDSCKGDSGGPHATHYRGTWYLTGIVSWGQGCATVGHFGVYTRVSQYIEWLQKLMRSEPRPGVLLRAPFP
T1 sequence (P08709 61-212 limits assumed): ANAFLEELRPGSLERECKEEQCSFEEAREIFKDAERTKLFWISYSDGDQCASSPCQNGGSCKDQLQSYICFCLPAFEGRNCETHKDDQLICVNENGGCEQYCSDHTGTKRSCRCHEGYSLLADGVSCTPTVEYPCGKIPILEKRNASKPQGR
T1 sequence (P13726 33-251 partner limits assumed): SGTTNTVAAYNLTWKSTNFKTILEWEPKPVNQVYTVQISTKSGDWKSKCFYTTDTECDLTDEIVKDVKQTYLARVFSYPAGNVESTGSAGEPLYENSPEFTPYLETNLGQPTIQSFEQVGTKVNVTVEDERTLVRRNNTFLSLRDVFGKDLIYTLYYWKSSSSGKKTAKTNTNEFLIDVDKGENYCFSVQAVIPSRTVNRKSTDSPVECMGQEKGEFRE
Sequence of Human factor Xa (P00742 235-488 limits assumed): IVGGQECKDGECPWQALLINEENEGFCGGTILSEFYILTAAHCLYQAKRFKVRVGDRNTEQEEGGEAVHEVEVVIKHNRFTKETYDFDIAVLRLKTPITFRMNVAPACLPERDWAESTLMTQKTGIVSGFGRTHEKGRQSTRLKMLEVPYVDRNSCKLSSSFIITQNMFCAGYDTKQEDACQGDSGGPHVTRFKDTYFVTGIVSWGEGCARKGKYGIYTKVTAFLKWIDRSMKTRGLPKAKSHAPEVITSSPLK
Sequence of Human factor Xa (P00742 41-179 limits assumed): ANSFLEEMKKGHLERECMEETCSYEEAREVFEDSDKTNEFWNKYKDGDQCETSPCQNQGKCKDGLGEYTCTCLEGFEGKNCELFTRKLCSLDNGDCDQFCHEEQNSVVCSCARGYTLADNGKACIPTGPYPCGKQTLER

SMILES | IC50 [1, 3] [nM] | IC50 [1, 4] [nM] | IC50 [2, 5] [nM] | further results
CC(C)CCNc1nc(Cl)c(-c2ccccc2)n(CC(=O)NCc2ccc(C(=N)N)cc2)c1=O [1517-40] | 1200 |  |  | IC50 or % Inhibition Factor Xa (30 µM) [2]: 0%
CC(C)(C)CCNc1nc(Cl)c(-c2ccccc2)n(CC(=O)NCc2ccc(C(=N)N)cc2)c1=O [1517-41] | 2200 |  |  | IC50 or % Inhibition Factor Xa (30 µM) [2]: 0%
N=C(N)c1ccc(CNC(=O)Cn2c(-c3ccccc3)c(Cl)nc(NCCN3CCCC3)c2=O)cc1 [1522-08] |  | 270 | > 30000 | 
CC(C)CCNc1nc(Cl)c(-c2ccccc2)n(CC(=O)NCc2ccc(C(=N)N)cc2)c1=O [1522-14] | 840 |  | > 30000 | 
CC(C)C(C)Nc1nc(Cl)c(-c2ccccc2)n(CC(=O)NCc2ccc(C(=N)N)cc2)c1=O (stereo not drawn) [1522-15] |  | 540 | > 30000 | 
CC(C)CC(C)Nc1nc(Cl)c(-c2ccccc2)n(CC(=O)NCc2ccc(C(=N)N)cc2)c1=O (stereo not drawn) [1522-17] |  | 620 | > 30000 | 
CC(C)(C)CCNc1nc(Cl)c(-c2ccccc2)n(CC(=O)NCc2ccc(C(=N)N)cc2)c1=O [1522-18] | 1700 |  | > 30000 | 
CC(CNc1nc(Cl)c(-c2ccccc2)n(CC(=O)NCc2ccc(C(=N)N)cc2)c1=O)N(C)C (stereo not drawn) [1522-23] |  | 2200 | > 30000 | 
CC(C)CNc1nc(Cl)c(-c2ccccc2)n(CC(=O)NCc2ccc(C(=N)N)cc2)c1=O [1522-34] | 500 |  | > 30000 | 
CCN1CC(Nc2nc(Cl)c(-c3ccccc3)n(CC(=O)NCc3ccc(C(=N)N)cc3)c2=O)CN1CC [1522-35] |  | 4000 | > 30000 | 
N=C(N)c1ccc(CNC(=O)Cn2c(-c3ccccc3)c(Cl)nc(NC3CCCCCC3)c2=O)cc1 [1522-36] | 1000 |  | > 30000 | 
N=C(N)c1ccc(CNC(=O)Cn2c(-c3ccccc3)c(Cl)nc(NCCNc3ncc(C(F)(F)F)cc3Cl)c2=O)cc1 [1522-37] |  | 2000 | > 30000 | 
N=C(N)c1ccc(CNC(=O)Cn2c(-c3ccccc3)c(Cl)nc(NCCNc3ncccc3C(F)(F)F)c2=O)cc1 [1522-38] |  | 1000 | > 30000 | 
N=C(N)c1ccc(CNC(=O)Cn2c(-c3ccccc3)c(Cl)nc(NCCCCN3CCCC3)c2=O)cc1 [1522-42] |  | 1000 | > 30000 | 
C[C@H](Nc1nc(Cl)c(-c2ccccc2)n(CC(=O)NCc2ccc(C(=N)N)cc2)c1=O)C1CCCCC1 [1522-43] |  | 800 | > 30000 | 
N=C(N)c1ccc(CNC(=O)Cn2c(-c3ccccc3)c(Cl)nc(NC3CC4CCC3C4)c2=O)cc1 (stereo not drawn) [1522-44] | 800 |  | > 30000 | 
N=C(N)c1ccc(CNC(=O)Cn2c(-c3ccccc3)c(Cl)nc(NC3CCS(=O)(=O)C3)c2=O)cc1 (stereo not drawn) [1522-46] | 1000 |  | > 30000 | 
N=C(N)c1ccc(CNC(=O)Cn2c(-c3cccc(N)c3)c(Cl)nc(NC3CC3)c2=O)cc1 [1526-01] |  | 20 | > 30000 | 
N=C(N)c1ccc(CNC(=O)Cn2c(-c3cccc(N)c3)c(Cl)nc(NCC(F)(F)F)c2=O)cc1 [1526-04] |  | 30 | > 30000 | 
COCC(C)Nc1nc(Cl)c(-c2cccc(N)c2)n(CC(=O)NCc2ccc(C(=N)N)cc2)c1=O (stereo not drawn) [1526-05] |  | 100 | > 30000 | 
CC(C)(C)Nc1nc(Cl)c(-c2cccc(N)c2)n(CC(=O)NCc2ccc(C(=N)N)cc2)c1=O [1526-07] |  | 80 | > 30000 | 
CC[C@H](C)Nc1nc(Cl)c(-c2cccc(N)c2)n(CC(=O)NCc2ccc(C(=N)N)cc2)c1=O [1526-09] |  | 30 | > 30000 | 
CCC(CC)Nc1nc(Cl)c(-c2cccc(N)c2)n(CC(=O)NCc2ccc(C(=N)N)cc2)c1=O [1526-11] | 50 |  | > 30000 | 
CCCNc1nc(Cl)c(-c2cccc(N)c2)n(CC(=O)NCc2ccc(C(=N)N)cc2)c1=O [1526-13] |  | 60 | > 30000 | 
CCC(C)Nc1nc(Cl)c(-c2cccc(N)c2)n(CC(=O)NCc2ccc(C(=N)N)cc2)c1=O (stereo not drawn) [1526-14] |  | 40 | > 30000 | 
CC(C)C(C)Nc1nc(Cl)c(-c2cccc(N)c2)n(CC(=O)NCc2ccc(C(=N)N)cc2)c1=O (stereo not drawn) [1526-15] |  | 60 | > 30000 | 

SMILES | IC50 [1, 3] [nM] | IC50 [1, 4] [nM] | IC50 [2, 5] [nM] | further results
CC[C@@H](C)Nc1nc(Cl)c(-c2cccc(N)c2)n(CC(=O)NCc2ccc(C(=N)N)cc2)c1=O [1526-16] |  | 40 | > 30000 | 
C=CCNc1nc(Cl)c(-c2cccc(N)c2)n(CC(=O)NCc2ccc(C(=N)N)cc2)c1=O [1526-19] |  | 40 | > 30000 | 
C#CCNc1nc(Cl)c(-c2cccc(N)c2)n(CC(=O)NCc2ccc(C(=N)N)cc2)c1=O [1526-21] |  | 50 | > 30000 | 
N=C(N)c1ccc(CNC(=O)Cn2c(-c3cccc(N)c3)c(Cl)nc(NC3CCC3)c2=O)cc1 [1526-23] |  | 30 | > 30000 | 
COCCNc1nc(Cl)c(-c2cccc(N)c2)n(CC(=O)NCc2ccc(C(=N)N)cc2)c1=O [1526-25] | 140 |  | > 30000 | 
CC(C)CNc1nc(Cl)c(-c2cccc(N)c2)n(CC(=O)NCc2ccc(C(=N)N)cc2)c1=O [1526-26] |  | 60 | > 30000 | 
C[C@H](Nc1nc(Cl)c(-c2cccc(N)c2)n(CC(=O)NCc2ccc(C(=N)N)cc2)c1=O)C1CCCCC1 [1526-29] |  | 120 | > 30000 | 
N=C(N)c1ccc(CNC(=O)Cn2c(-c3cccc(N)c3)c(Cl)nc(N[C@@H]3CC4CCC3C4)c2=O)cc1 (stereo partly drawn) [1526-30] |  | 80 | > 30000 | 
N=C(N)c1ccc(CNC(=O)Cn2c(-c3cccc(N)c3)c(Cl)nc(NC[C@@H]3CCCO3)c2=O)cc1 [1526-33] |  | 260 | > 30000 | 
N=C(N)c1ccc(CNC(=O)Cn2c(-c3cccc(N)c3)c(Cl)nc(NC3CCC3)c2=O)c(F)c1 [1543-39] |  |  |  | IC50 ([1]; cells without % sign: IC50; read-out: IC50 or % Inhibition TF-VIIa (30 µM)): 40 nM; IC50 or % Inhibition Factor Xa (30 µM) [2]: 14%
N=C(N)c1ccc(CNC(=O)Cn2c(Cc3ccccc3)cnc(NCCc3ccccc3)c2=O)cc1 [Example 2] | 5000 |  |  | IC50 [2]: > 100000 nM
N=C(N)NCCC[C@H](NC(=O)Cn1c(-c2ccccc2)c(Cl)nc(NCCc2ccccc2)c1=O)C(=O)c1nccs1 [Example 3] | 200 |  |  | IC50 [2]: 1000 nM
N=C(N)NCCC[C@H](NC(=O)Cn1c(CCc2ccccc2)c(Cl)nc(NCCc2ccccc2)c1=O)C(=O)c1nccs1 [Example 5] | 7000 |  |  | IC50 [2]: 4000 nM
N=C(N)NCCC[C@H](NC(=O)Cn1c(-c2ccccc2)cnc(NCCc2ccccc2)c1=O)C(=O)c1nccs1 [Example 6] | 100 |  |  | IC50 [2]: 1000 nM
N=C(N)NCCC[C@H](NC(=O)Cn1c(Cc2ccccc2)cnc(NCCc2ccccc2)c1=O)C(=O)c1nccs1 [Example 7] | 200 |  |  | IC50 [2]: 3000 nM
N=C(N)NCCC[C@H](NC(=O)Cn1c(CCc2ccccc2)cnc(NCCc2ccccc2)c1=O)C(=O)c1nccs1 [Example 8] | 3000 |  |  | IC50 [2]: 1000 nM
N=C(N)NCCCNC(=O)Cn1c(-c2ccccc2)cnc(NCCc2ccccc2)c1=O [Example 11] | 91000 |  |  | IC50 [2]: > 100000 nM
N=C(N)NCCCCNC(=O)Cn1c(-c2ccccc2)cnc(NCCc2ccccc2)c1=O [Example 12] | > 100000 |  |  | IC50 [2]: > 100000 nM
N=C(N)NCCCCCNC(=O)Cn1c(-c2ccccc2)cnc(NCCc2ccccc2)c1=O [Example 13] | > 100000 |  |  | IC50 [2]: > 100000 nM
COc1ccc(-c2cnc(NCCc3ccccc3)c(=O)n2CC(=O)NCCCCNC(=N)N)cc1 [Example 14] | > 100000 |  |  | IC50 [2]: > 100000 nM
N=C(N)NCCCCNC(=O)Cn1c(-c2ccc3c(c2)OCO3)cnc(NCCc2ccccc2)c1=O [Example 16] | > 100000 |  |  | IC50 [2]: > 100000 nM
CC(C)Nc1nc(Cl)c(-c2cccc(C#N)c2)n(CC(=O)NCc2ccc(C(=N)N)cc2)c1=O [Example 17] | 710 |  |  | IC50 or % Inhibition Factor Xa (30 µM) [2]: 41%
N=C(N)c1ccc(CNC(=O)Cn2c(-c3ccccc3)c(Cl)nc(NCCc3ccncc3)c2=O)cc1 [Example 19] | 800 |  |  | IC50 or % Inhibition Factor Xa (30 µM) [2]: 22%@30
N=C(N)c1ccc(CNC(=O)Cn2c(-c3ccc(-c4ccccc4)cc3)c(Cl)nc(NCCc3cccnc3)c2=O)cc1 [Example 21] |  |  |  | IC50 or % Inhibition TF-VIIa (30 µM) ([1]; % inhibition at 30 µM): 8%@30; IC50 or % Inhibition Factor Xa (30 µM) [2]: 21%@30
N=C(N)c1ccc(CNC(=O)Cn2c(-c3ccc(-c4ccccc4)cc3)c(Cl)nc(NCCc3ccc(Cl)cc3)c2=O)cc1 [Example 22] |  |  |  | IC50 or % Inhibition TF-VIIa (30 µM) ([1]; % inhibition at 30 µM): 0%@30; IC50 or % Inhibition Factor Xa (30 µM) [2]: 13%@30
